Laboratory results: US10913727B2, “Modulators of the integrated stress pathway” (Calico Life Sciences LLC, priority 2016, dated 2021)

System: HEK293T cells carrying the ATF4 luciferase reporter
Assay: ATF4-Luc assay, in vitro model of Vanishing Cell White Matter Disease (VWMD)
Type: cell-based
Conditions: Homo sapiens, HEK-293T, 1 μg/mL tunicamycin, 7 hours, One Glo luminescence
Summary of the method: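 Reporter cells were stably generated by retroviral transduction and puromycin selection, then seeded at 30,000 cells/well. Next day, cells received 1 μg/mL tunicamycin with 200 nM test compound for 7 h, and luciferase luminescence was read with a one-step reagent. Values reported as EC50.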

SMILES: Cc1cc(C(=O)NC23CCC(NC(=O)COc4ccc(F)c(F)c4)(CC2)C(O)C3)on1 (stereo not drawn) [Compound 462, N-{4-[2-(3,4-difluorophenoxy)acetamido]-3-hydroxybicyclo[2.2.2]octan-1-yl}-3-methyl-1,2-oxazole-5-carboxamide]
- EC50: 250 to 1000 nM

SMILES: CC(=O)Nc1nc(C(=O)NC23CC(NC(=O)COc4ccc(Cl)c(F)c4)(C2)C3)cs1 [Compound 870, 2-acetamido-N-{3-[2-(4-chloro-3-fluorophenoxy)acetamido]bicyclo[1.1.1]pentan-1-yl}-1,3-thiazole-4-carboxamide]
- EC50: > 2000 nM

SMILES: Cc1nn(C)c(C(=O)NC23CC(NC(=O)COc4ccc(Cl)c(F)c4)(C2)C3)c1F [Compound 499, N-{3-[2-(4-chloro-3-fluorophenoxy)acetamido]bicyclo[1.1.1]pentan-1-yl}-4-fluoro-1,3-dimethyl-1H-pyrazole-5-carboxamide]
- EC50: < 50 nM

SMILES: CC(=O)Nc1ccc(F)cc1C(=O)NC12CC(NC(=O)COc3ccc(Cl)c(F)c3)(C1)C2 [Compound 765, 2-acetamido-N-{3-[2-(4-chloro-3-fluorophenoxy)acetamido]bicyclo[1.1.1]pentan-1-yl}-5-fluorobenzamide]
- EC50: 50 to 250 nM

SMILES: CC(=O)NCc1ccc(C(=O)NC23CC(NC(=O)COc4ccc(Cl)c(F)c4)(C2)C3)o1 [Compound 778, 5-(acetamidomethyl)-N-{3-[2-(4-chloro-3-fluorophenoxy)acetamido]bicyclo[1.1.1]pentan-1-yl}furan-2-carboxamide]
- EC50: > 2000 nM

SMILES: O=C(COc1ccc(Cl)c(F)c1)NC12CCC(NC(=O)c3ccc(F)cc3)(CC1)[C@@H](O)C2 [Compound 489, N-{(2S)-4-[2-(4-chloro-3-fluorophenoxy)acetamido]-2-hydroxybicyclo[2.2.2]octan-1-yl}-4-fluorobenzamide]
- EC50: 50 to 250 nM

SMILES: O=C(COc1ccc(Cl)c(F)c1)NC12CCC(NC(=O)c3cnc4ccccc4n3)(CC1)C[C@@H]2O [Compound 667, N-{(3S)-4-[2-(4-chloro-3-fluorophenoxy)acetamido]-3-hydroxybicyclo[2.2.2]octan-1-yl}quinoxaline-2-carboxamide]
- EC50: < 50 nM

SMILES: O=C(COc1ccc(Cl)c(F)c1)NC12CCC(NC(=O)c3cnccn3)(CC1)C(O)C2 (stereo not drawn) [Compound 219, N-{4-[2-(4-chloro-3-fluorophenoxy)acetamido]-2-hydroxybicyclo[2.2.2]octan-1-yl}pyrazine-2-carboxamide]
- EC50: 50 to 250 nM

SMILES: O=C(COc1ccc(Cl)c(F)c1)NC12CC(Nc3nccc(-c4cnn(C(F)F)c4)n3)(C1)C2 [Compound 382, 2-(4-chloro-3-fluorophenoxy)-N-[3-({4-[1-(difluoromethyl)-1H-pyrazol-4-yl]pyrimidin-2-yl}amino)bicyclo[1.1.1]pentan-1-yl]acetamide]
- EC50: > 2000 nM

SMILES: Cc1cc(C(=O)NC23CCC(NC(=O)COc4ccc(Cl)c(F)c4)(CC2)[C@@H](O)C3)sn1 [Compound 679, N-{(3S)-4-[2-(4-chloro-3-fluorophenoxy)acetamido]-3-hydroxybicyclo[2.2.2]octan-1-yl}-3-methyl-1,2-thiazole-5-carboxamide]
- EC50: < 50 nM

SMILES: COc1cc(F)ccc1C(=O)NC12CC(NC(=O)COc3ccc(Cl)c(F)c3)(C1)C2 [Compound 527, N-{3-[2-(4-chloro-3-fluorophenoxy)acetamido]bicyclo[1.1.1]pentan-1-yl}-4-fluoro-2-methoxybenzamide]
- EC50: 1000 to 2000 nM

SMILES: COc1nccnc1C(=O)NC12CCC(NC(=O)COc3ccc(Cl)c(F)c3)(CC1)C(O)C2 (stereo not drawn) [Compound 274, N-{4-[2-(4-chloro-3-fluorophenoxy)acetamido]-3-hydroxybicyclo[2.2.2]octan-1-yl}-3-methoxypyrazine-2-carboxamide]
- EC50: 250 to 1000 nM

SMILES: Cc1cncc(C(=O)NC23CC(NC(=O)COc4ccc(Cl)c(F)c4)(C2)C3)c1 [Compound 644, N-{3-[2-(4-chloro-3-fluorophenoxy)acetamido]bicyclo[1.1.1]pentan-1-yl}-5-methylpyridine-3-carboxamide]
- EC50: 50 to 250 nM

SMILES: O=C(COc1ccc(Cl)c(F)c1)NC12CC(NC(=O)c3ccc4ncoc4c3)(C1)C2 [Compound 834, N-{3-[2-(4-chloro-3-fluorophenoxy)acetamido]bicyclo[1.1.1]pentan-1-yl}-1,3-benzoxazole-6-carboxamide]
- EC50: 250 to 1000 nM

SMILES: Cc1nc2ccc(C(=O)NC34CC(NC(=O)COc5ccc(Cl)c(F)c5)(C3)C4)cc2o1 [Compound 341, N-{3-[2-(4-chloro-3-fluorophenoxy)acetamido]bicyclo[1.1.1]pentan-1-yl}-2-methyl-1,3-benzoxazole-6-carboxamide]
- EC50: > 2000 nM

SMILES: CC(C)c1nc(C(=O)NC23CCC(NC(=O)COc4ccc(Cl)c(F)c4)(CC2)C(O)C3)co1 (stereo not drawn) [Compound 607, N-{4-[2-(4-chloro-3-fluorophenoxy)acetamido]-3-hydroxybicyclo[2.2.2]octan-1-yl}-2-(propan-2-yl)-1,3-oxazole-4-carboxamide]
- EC50: 50 to 250 nM

SMILES: O=C(COc1ccc2c(c1)OC(F)(F)O2)NC12CCC(NC(=O)c3cccc(F)c3)(CC1)C[C@@H]2O [Compound 635, N-[(3S)-4-{2-[(2,2-difluoro-2H-1,3-benzodioxol-5-yl)oxy]acetamido}-3-hydroxybicyclo[2.2.2]octan-1-yl]-3-fluorobenzamide]
- EC50: 250 to 1000 nM

SMILES: O=C(COc1ccc(Cl)c(F)c1)NC12CC(NC(=O)c3cc(C(F)(F)F)ccn3)(C1)C2 [Compound 176, N-{3-[2-(4-chloro-3-fluorophenoxy)acetamido]bicyclo[1.1.1]pentan-1-yl}-4-(trifluoromethyl)pyridine-2-carboxamide]
- EC50: 50 to 250 nM

SMILES: CCc1ccc(C(=O)NC23CC(NC(=O)COc4ccc(Cl)c(F)c4)(C2)C3)nc1 [Compound 145, N-{3-[2-(4-chloro-3-fluorophenoxy)acetamido]bicyclo[1.1.1]pentan-1-yl}-5-ethylpyridine-2-carboxamide]
- EC50: 50 to 250 nM

SMILES: O=C(COc1ccc(Cl)c(F)c1)NC12CC(Nc3ccnc(N4CCOCC4)n3)(C1)C2 [Compound 721, 2-(4-chloro-3-fluorophenoxy)-N-(3-{[2-(morpholin-4-yl)pyrimidin-4-yl]amino}bicyclo[1.1.1]pentan-1-yl)acetamide]
- EC50: > 2000 nM

SMILES: O=C(COc1ccc(Cl)c(F)c1)NC12CC(NC(=O)c3ccncc3)(C1)C2 [Compound 186, N-{3-[2-(4-chloro-3-fluorophenoxy)acetamido]bicyclo[1.1.1]pentan-1-yl}pyridine-4-carboxamide]
- EC50: 250 to 1000 nM

SMILES: Cc1nc(C)c(C(=O)NC23CC(NC(=O)COc4ccc(Cl)c(F)c4)(C2)C3)o1 [Compound 847, N-{3-[2-(4-chloro-3-fluorophenoxy)acetamido]bicyclo[1.1.1]pentan-1-yl}-2,4-dimethyl-1,3-oxazole-5-carboxamide]
- EC50: 250 to 1000 nM

SMILES: Cc1cc2c(C(=O)NC34CC(NC(=O)COc5ccc(Cl)c(F)c5)(C3)C4)nccn2n1 [Compound 561, N-{3-[2-(4-chloro-3-fluorophenoxy)acetamido]bicyclo[1.1.1]pentan-1-yl}-2-methylpyrazolo[1,5-a]pyrazine-4-carboxamide]
- EC50: > 2000 nM

SMILES: COCCOc1ccc(C(=O)NC23CC(NC(=O)COc4ccc(Cl)c(F)c4)(C2)C3)nc1 [Compound 299, N-{3-[2-(4-chloro-3-fluorophenoxy)acetamido]bicyclo[1.1.1]pentan-1-yl}-5-(2-methoxyethoxy)pyridine-2-carboxamide]
- EC50: 250 to 1000 nM

SMILES: O=C(COc1ccc(Cl)c(Cl)c1)NC12CC(NC(=O)c3ccnc(CO)c3)(C1)C2 [Compound 715, N-{3-[2-(3,4-dichlorophenoxy)acetamido]bicyclo[1.1.1]pentan-1-yl}-2-(hydroxymethyl)pyridine-4-carboxamide]
- EC50: 1000 to 2000 nM

SMILES: CCc1ccc(C(=O)NC23CC(NC(=O)COc4ccc(Cl)c(F)c4)(C2)C3)o1 [Compound 250, N-{3-[2-(4-chloro-3-fluorophenoxy)acetamido]bicyclo[1.1.1]pentan-1-yl}-5-ethylfuran-2-carboxamide]
- EC50: < 50 nM

SMILES: CC(C)(O)c1cccc(C(=O)NC23CC(NC(=O)COc4ccc(Cl)c(F)c4)(C2)C3)c1 [Compound 386, N-{3-[2-(4-chloro-3-fluorophenoxy)acetamido]bicyclo[1.1.1]pentan-1-yl}-3-(2-hydroxypropan-2-yl)benzamide]
- EC50: > 2000 nM

SMILES: Cc1ccc(C(=O)NC23CCC(NC(=O)COc4ccc(Cl)c(F)c4)(CC2)C[C@@H]3O)nc1 [Compound 589, N-{(2S)-4-[2-(4-chloro-3-fluorophenoxy)acetamido]-2-hydroxybicyclo[2.2.2]octan-1-yl}-5-methylpyridine-2-carboxamide]
- EC50: 50 to 250 nM

SMILES: Cc1ncc(C(=O)NC23CCC(NC(=O)COc4ccc(Cl)c(F)c4)(CC2)C(O)C3)s1 (stereo not drawn) [Compound 471, N-{4-[2-(4-chloro-3-fluorophenoxy)acetamido]-3-hydroxybicyclo[2.2.2]octan-1-yl}-2-methyl-1,3-thiazole-5-carboxamide]
- EC50: 50 to 250 nM

SMILES: Cc1cccc(C(=O)NC23CCC(NC(=O)COc4ccc(Cl)c(F)c4)(CC2)C(O)C3)n1 (stereo not drawn) [Compound 914, N-{4-[2-(4-chloro-3-fluorophenoxy)acetamido]-3-hydroxybicyclo[2.2.2]octan-1-yl}-6-methylpyridine-2-carboxamide]
- EC50: 50 to 250 nM

SMILES: O=C(COc1ccc2c(c1)OC(F)(F)O2)NC12CC(NC(=O)c3cnc(C(F)F)cn3)(C1)C2 [Compound 376, N-(3-{2-[(2,2-difluoro-2H-1,3-benzodioxol-5-yl)oxy]acetamido}bicyclo[1.1.1]pentan-1-yl)-5-(difluoromethyl)pyrazine-2-carboxamide]
- EC50: 50 to 250 nM

SMILES: O=C(COc1ccc(Cl)c(F)c1)NC12CC(NC(=O)c3ccnc(CO)c3)(C1)C2 [Compound 741, N-{3-[2-(4-chloro-3-fluorophenoxy)acetamido]bicyclo[1.1.1]pentan-1-yl}-2-(hydroxymethyl)pyridine-4-carboxamide]
- EC50: > 2000 nM

SMILES: Cc1nc(C(=O)NC23CCC(NC(=O)COc4ccc(Cl)c(F)c4)(CC2)C(O)C3)nn1C (stereo not drawn) [Compound 657, N-{4-[2-(4-chloro-3-fluorophenoxy)acetamido]-3-hydroxybicyclo[2.2.2]octan-1-yl}-1,5-dimethyl-1H-1,2,4-triazole-3-carboxamide]
- EC50: > 2000 nM
